Columns and labels:
[1] = compared with native viral Vpr
[2] = test system: vpr deficient HIV-1 mutant viruses; settings: primary human monocytes/macrophages from different donors, vpr-deficient mutant NL(AD8)deltaR, two months
Source text: Parallel cultures of differentiated MDM isolated from three different donors were infected with equal infectious doses of purified virus stocks of the macrophage-tropic virus NL4-3(AD8) as well as the vpr-deficient mutant NL(AD8)deltaR. Virus production was followed over a time frame of two months and release of virus associated RT-activity was plotted against time.

human PBMC = settings: cultures of human PBMC infected with HIV-1NL4-3, 10 nM peptide
Source text: (§1) Cultures of PHA- and IL-2-activated PBMCs were infected with equal infectious doses of the following virus stocks: HIV-1NL4-3 (A, B, C), NL4-3(AD8) (D) as well as the vpu-deficient mutant NL(AD8)-UDEL1 (E), and the vpr-deficient mutant NL(AD8)deltaR (F).

HIV-1NL4-3 = settings: cultures of human PBMC, 10 nM peptide
Source text: as §1

## H-Met-Glu-Gln-Ala-Pro-Glu-Asp-Gln-Gly-Pro-Gln-Arg-Glu-Pro-Tyr-Asn-Gln-Trp-Thr-Leu-Glu-Leu-Leu-Glu-Glu-Leu-Lys-Ser-Glu-Ala-Val-Arg-His-Phe-Pro-Arg-Ile-Trp-Leu-His-Asn-Leu-Gly-Gln-His-Ile-Tyr-Glu-Thr-Tyr-Gly-Asp-Thr-Trp-Ala-Gly-Val-Glu-Ala-Ile-Ile-Arg-Ile-Leu-Gln-Gln-Leu-Leu-Phe-Ile-His-Phe-Arg-Ile-Gly-Cys-Arg-His-Ser-Arg-Ile-Gly-Val-Thr-Arg-Gln-Arg-Arg-Ala-Arg-Asn-Gly-Ala-Ser-Arg-Set-OH [sVpr^1-96]
[1]
  biological activities: comparable to native viral Vpr
[2]
  virus replication (release of virus associated RT-activity): activates virus replication
Human PBMC
  number of live cells: increases the number of live cells
HIV-1NL4-3
  virus replication (virus associated RT-activity released into cell culture supernatant): activates virus replication

Reference: patent US6984486B1, “Synthetic peptide of regulatory virus protein R (VPR) of human immunodeficiency virus type 1 (HIV-1) and the utilization thereof” (J. David Gladstone Institutes, priority 1999, dated 2006)
